How the values were obtained:
Assay type in all cases: biochemical
[1] = target: T1, JAK1 (aa 850-1154, catalytic domain, GST-tag) (Homo sapiens, UniProt P23458); assay: JAK kinase assay (HTRF, phosphorylation of TK substrate-biotin), JAK1; settings: HTRF assay, ATP at Km (7 μM); read-out: JAK1 kinase inhibitory activity (EC50 indicator)
T1 construct: JAK1 (aa 850-1154) and TYK2 (aa 871-1187) are expressed with an N-terminally fused GST-tag; GST (N); purchased Carna Biosciences, Inc; host or cells: baculovirus expression system
T1 sequence (P23458 850-1154): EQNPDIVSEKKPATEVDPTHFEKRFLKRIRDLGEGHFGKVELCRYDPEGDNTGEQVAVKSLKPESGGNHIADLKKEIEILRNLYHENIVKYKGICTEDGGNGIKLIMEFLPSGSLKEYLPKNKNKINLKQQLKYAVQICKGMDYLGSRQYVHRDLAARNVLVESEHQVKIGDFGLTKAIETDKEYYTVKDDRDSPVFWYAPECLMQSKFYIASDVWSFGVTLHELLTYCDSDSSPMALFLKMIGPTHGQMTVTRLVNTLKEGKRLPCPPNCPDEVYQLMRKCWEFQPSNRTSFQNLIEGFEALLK
Procedure, shortened: (§1)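 EC50 values come from HTRF detection of phospho-biotin-TK peptide (1 μM) after 20-30 min RT reactions in Hepes pH 7.0 buffer with 0.75% DMSO. ATP was at Km for each enzyme: 7 μM JAK1, 4 μM JAK2, 2 μM JAK3, 13 μM TYK2. SEB (50 nM) was added for JAK1 and TYK2 only.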

[2] = target: T2, JAK2 (catalytic domain, His-tag) (Homo sapiens, UniProt O60674); assay: JAK kinase assay (HTRF, phosphorylation of TK substrate-biotin), JAK2; settings: HTRF assay, ATP at Km (4 μM); read-out: JAK2 kinase inhibitory activity (EC50 indicator)
T2 construct: All four purified enzymes contain only the catalytic domain; His (N); purchased Carna Biosciences, Inc; host or cells: baculovirus expression system
T2 sequence (O60674 849-1124 limits assumed): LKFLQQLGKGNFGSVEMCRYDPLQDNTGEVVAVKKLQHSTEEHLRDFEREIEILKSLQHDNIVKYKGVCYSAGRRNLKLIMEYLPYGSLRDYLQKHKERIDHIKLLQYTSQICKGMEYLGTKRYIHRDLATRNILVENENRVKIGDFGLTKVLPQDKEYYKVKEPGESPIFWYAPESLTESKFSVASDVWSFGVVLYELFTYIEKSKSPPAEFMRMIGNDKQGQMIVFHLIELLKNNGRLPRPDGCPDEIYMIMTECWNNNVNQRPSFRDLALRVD
Procedure, shortened: as §1

[3] = target: T3, JAK3 (catalytic domain, His-tag) (Homo sapiens, UniProt P52333); assay: JAK kinase assay (HTRF, phosphorylation of TK substrate-biotin), JAK3; settings: HTRF assay, ATP at Km (2 μM); read-out: JAK3 kinase inhibitory activity (EC50 indicator)
T3 construct: All four purified enzymes contain only the catalytic domain; His (N); purchased Carna Biosciences, Inc; host or cells: baculovirus expression system
T3 sequence (P52333 822-1111 limits assumed): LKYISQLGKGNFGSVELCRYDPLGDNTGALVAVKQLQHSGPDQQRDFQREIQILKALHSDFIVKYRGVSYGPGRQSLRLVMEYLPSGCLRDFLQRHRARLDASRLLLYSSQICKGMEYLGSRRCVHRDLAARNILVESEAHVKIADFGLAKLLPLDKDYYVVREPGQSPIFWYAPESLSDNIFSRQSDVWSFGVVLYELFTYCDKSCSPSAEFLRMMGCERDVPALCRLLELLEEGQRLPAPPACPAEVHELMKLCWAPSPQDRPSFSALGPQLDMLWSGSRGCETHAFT
Procedure, shortened: as §1

[4] = target: T4, TYK2 (aa 871-1187, catalytic domain, GST-tag) (Homo sapiens, UniProt P29597); assay: JAK kinase assay (HTRF, phosphorylation of TK substrate-biotin), TYK2; settings: HTRF assay, ATP at Km (13 μM); read-out: TYK2 kinase inhibitory activity (EC50 indicator)
T4 construct: JAK1 (aa 850-1154) and TYK2 (aa 871-1187) are expressed with an N-terminally fused GST-tag; GST (N); purchased Carna Biosciences, Inc; host or cells: baculovirus expression system
T4 sequence (P29597 871-1187): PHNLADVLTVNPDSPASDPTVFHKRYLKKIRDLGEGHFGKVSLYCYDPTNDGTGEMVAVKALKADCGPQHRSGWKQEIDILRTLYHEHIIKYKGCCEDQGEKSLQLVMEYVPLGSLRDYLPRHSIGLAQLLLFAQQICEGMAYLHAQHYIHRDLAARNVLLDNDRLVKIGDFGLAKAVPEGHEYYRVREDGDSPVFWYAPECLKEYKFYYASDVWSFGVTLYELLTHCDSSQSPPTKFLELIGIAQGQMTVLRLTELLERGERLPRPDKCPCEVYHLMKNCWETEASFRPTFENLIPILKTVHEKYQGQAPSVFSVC
Procedure, shortened: as §1

EC50 [1] [nM] | EC50 [2] [nM] | EC50 [3] [nM] | EC50 [4] [nM] | Compound
> 500 | > 500 | > 500 | > 500 | Cc1ccc(C(=O)N2C[C@@H]3C[C@H]2CN3c2ncnc3[nH]ccc23)s1 [Example 265, (5-Methyl-thiophen-2-yl)-[5-(7H-pyrrolo[2,3-d]pyrimidin-4-yl)-2,5-diaza-bicyclo[2.2.1]hept-2-yl]-methanone]
> 500 | 100 to 500 | 100 to 500 | > 500 | COc1cnc2[nH]ccc2c1N1CCN(C(=O)c2ccccc2)C2(CC2)C1 [Example 283, [7-(5-Methoxy-1H-pyrrolo[2,3-b]pyridin-4-yl)-4,7-diaza-spiro[2.5]oct-4-yl]-phenyl-methanone]
> 500 | > 500 | > 500 | > 500 | COc1cnc2[nH]ccc2c1N1CCN(C(=O)c2cc3ccccc3s2)C2(CC2)C1 [Example 284, Benzo[b]thiophen-2-yl-[7-(5-methoxy-1H-pyrrolo[2,3-b]pyridin-4-yl)-4,7-diaza-spiro[2.5]oct-4-yl]-methanone]
> 500 | 100 to 500 | 100 to 500 | > 500 | COc1cnc2[nH]ccc2c1N1CCN(C(=O)c2cnccn2)C2(CC2)C1 [Example 285, [7-(5-Methoxy-1H-pyrrolo[2,3-b]pyridin-4-yl)-4,7-diaza-spiro[2.5]oct-4-yl]-pyrazin-2-yl-methanone]
> 500 | > 500 | > 500 | > 500 | COc1cnc2[nH]ccc2c1N1CCN(C(=O)c2ccc(C#N)cc2)C2(CC2)C1 [Example 286, 4-[7-(5-Methoxy-1H-pyrrolo[2,3-b]pyridin-4-yl)-4,7-diaza-spiro[2.5]octane-4-carbonyl]-benzonitrile]
> 500 | > 500 | 100 to 500 | > 500 | COc1cnc2[nH]ccc2c1N1CCN(C(=O)c2cc3ccccc3[nH]2)C2(CC2)C1 [Example 288, (1H-Indol-2-yl)-[7-(5-methoxy-1H-pyrrolo[2,3-b]pyridin-4-yl)-4,7-diaza-spiro[2.5]oct-4-yl]-methanone]
< 100 | < 100 | < 100 | 100 to 500 | COc1cnc2[nH]ccc2c1N1CCN(C(=O)CCCC#N)C2(CC2)C1 [Example 293, 5-[7-(5-Methoxy-1H-pyrrolo[2,3-b]pyridin-4-yl)-4,7-diaza-spiro[2.5]oct-4-yl]-5-oxo-pentanenitrile]
100 to 500 | 100 to 500 | 100 to 500 | > 500 | COc1cnc2[nH]ccc2c1N1CCN(C(=O)Cc2cccc(C#N)c2)C2(CC2)C1 [Example 294, 3-{2-[7-(5-Methoxy-1H-pyrrolo[2,3-b]pyridin-4-yl)-4,7-diaza-spiro[2.5]oct-4-yl]-2-oxo-ethyl}-benzonitrile]
< 100 | < 100 | < 100 | 100 to 500 | N#CCCCC(=O)N1CCN(c2ncnc3[nH]ccc23)CC12CC2 [Example 298, 5-Oxo-5-[7-(7H-pyrrolo[2,3-d]pyrimidin-4-yl)-4,7-diaza-spiro[2.5]oct-4-yl]-pentanenitrile]
< 100 | < 100 | 100 to 500 | 100 to 500 | N#Cc1ccccc1C(=O)N1CCN(c2ncnc3[nH]ccc23)CC12CC2 [Example 299, 2-[7-(7H-Pyrrolo[2,3-d]pyrimidin-4-yl)-4,7-diaza-spiro[2.5]octane-4-carbonyl]-benzonitrile]
< 100 | < 100 | 100 to 500 | 100 to 500 | N#CCc1ccccc1C(=O)N1CCN(c2ncnc3[nH]ccc23)CC12CC2 [Example 300, {2-[7-(7H-Pyrrolo[2,3-d]pyrimidin-4-yl)-4,7-diaza-spiro[2.5]octane-4-carbonyl]-phenyl}-acetonitrile]

The next lines start with the compound.

Compound | EC50 [1] [nM] | EC50 [2] [nM] | EC50 [3] [nM] | EC50 [4] [nM]
N#Cc1ccc(C(=O)N2C[C@@H]3C[C@H]2CN3c2ncnc3[nH]ccc23)cc1 [Example 258, 4-[5-(7H-Pyrrolo[2,3-d]pyrimidin-4-yl)-2,5-diaza-bicyclo[2.2.1]heptane-2-carbonyl]-benzonitrile] | > 500 | > 500 | > 500 | > 500
N#CC1(C(=O)N2C[C@@H]3C[C@H]2CN3c2ncnc3[nH]ccc23)CC1 [Example 270, 1-[5-(7H-Pyrrolo[2,3-d]pyrimidin-4-yl)-2,5-diaza-bicyclo[2.2.1]heptane-2-carbonyl]-cyclopropanecarbonitrile] | > 500 | > 500 | > 500 | > 500
N#Cc1ccc(CC(=O)N2C[C@@H]3C[C@H]2CN3c2ncnc3[nH]ccc23)cc1 [Example 278, 4-{2-Oxo-2-[5-(7H-pyrrolo[2,3-d]pyrimidin-4-yl)-2,5-diaza-bicyclo[2.2.1]hept-2-yl]-ethyl}-benzonitrile] | > 500 | > 500 | > 500 | > 500
COc1cnc2[nH]ccc2c1N1CCN(C(=O)c2cccc(C#N)c2)C2(CC2)C1 [Example 287, 3-[7-(5-Methoxy-1H-pyrrolo[2,3-b]pyridin-4-yl)-4,7-diaza-spiro[2.5]octane-4-carbonyl]-benzonitrile] | > 500 | 100 to 500 | 100 to 500 | > 500
COc1cnc2[nH]ccc2c1N1CCN(C(=O)c2csc3ccccc23)C2(CC2)C1 [Example 289, Benzo[b]thiophen-3-yl-[7-(5-methoxy-1H-pyrrolo[2,3-b]pyridin-4-yl)-4,7-diaza-spiro[2.5]oct-4-yl]-methanone] | 100 to 500 | 100 to 500 | 100 to 500 | > 500
COc1cnc2[nH]ccc2c1N1CCN(C(=O)c2ccc(-c3ccccc3)s2)C2(CC2)C1 [Example 290, [7-(5-Methoxy-1H-pyrrolo[2,3-b]pyridin-4-yl)-4,7-diaza-spiro[2.5]oct-4-yl]-(5-phenyl-thiophen-2-yl)-methanone] | > 500 | > 500 | > 500 | > 500
COc1cnc2[nH]ccc2c1N1CCN(C(=O)c2cc3cc(C#N)ccc3[nH]2)C2(CC2)C1 [Example 291, 2-[7-(5-Methoxy-1H-pyrrolo[2,3-b]pyridin-4-yl)-4,7-diaza-spiro[2.5]octane-4-carbonyl]-1H-indole-5-carbonitrile] | > 500 | > 500 | 100 to 500 | > 500
COc1cnc2[nH]ccc2c1N1CCN(C(=O)c2ccc(C#N)c(F)c2)C2(CC2)C1 [Example 292, 2-Fluoro-4-[7-(5-methoxy-1H-pyrrolo[2,3-b]pyridin-4-yl)-4,7-diaza-spiro[2.5]octane-4-carbonyl]-benzonitrile] | > 500 | 100 to 500 | 100 to 500 | > 500
COc1cnc2[nH]ccc2c1N1CCN(C(=O)Cc2ccc(C#N)cc2)C2(CC2)C1 [Example 295, 4-{2-[7-(5-Methoxy-1H-pyrrolo[2,3-b]pyridin-4-yl)-4,7-diaza-spiro[2.5]oct-4-yl]-2-oxo-ethyl}-benzonitrile] | 100 to 500 | < 100 | < 100 | > 500
Cc1c(C(=O)N2CCN(c3ncnc4[nH]ccc34)CC23CC3)sc2ccccc12 [Example 296, (3-Methyl-benzo[b]thiophen-2-yl)-[7-(7H-pyrrolo[2,3-d]pyrimidin-4-yl)-4,7-diaza-spiro[2.5]oct-4-yl]-methanone] | < 100 | < 100 | 100 to 500 | < 100
Cc1ccc2sc(C(=O)N3CCN(c4ncnc5[nH]ccc45)CC34CC4)cc2c1 [Example 297, (5-Methyl-benzo[b]thiophen-2-yl)-[7-(7H-pyrrolo[2,3-d]pyrimidin-4-yl)-4,7-diaza-spiro[2.5]oct-4-yl]-methanone] | < 100 | < 100 | 100 to 500 | 100 to 500
N#Cc1ccc2c(C(=O)N3CCN(c4ncnc5[nH]ccc45)CC34CC4)n[nH]c2c1 [Example 301, 3-[7-(7H-Pyrrolo[2,3-d]pyrimidin-4-yl)-4,7-diaza-spiro[2.5]octane-4-carbonyl]-1H-indazole-6-carbonitrile] | < 100 | < 100 | < 100 | 100 to 500
Nc1nc(N2CCN(C(=O)c3cnccn3)C3(CC3)C2)c2cc[nH]c2n1 [Example 302, [7-(2-Amino-7H-pyrrolo[2,3-d]pyrimidin-4-yl)-4,7-diaza-spiro[2.5]oct-4-yl]-pyrazin-2-yl-methanone] | 100 to 500 | < 100 | 100 to 500 | > 500

Source: patent publication US9346809B2 (LEO PHARMA A/S, priority 2009, dated 2016)
